Reference: US11382328B2, “Rapid drug discovery methods for pathogen inactivation” (priority 2019, dated 2022)
Read-outs that look alike come from different tables or passages of the source.

System: E. coli strain W3110
Assay: Synergy assays: Biolog chemical sensitivity panels with Group IB metal, coefficient of drug interaction (CDI) from relative growth
Format: cell-based
Conditions: for CDI (coefficient of drug interaction), copper mixed with biocide: Copper (mM) section
[1] = 1st of 3 copper concentrations (value not shown), 4th of four biocide concentrations
[2] = 2nd of 3 copper concentrations (value not shown), 4th of four biocide concentrations
[3] = 3rd of 3 copper concentrations (value not shown), 4th of four biocide concentrations
[4] = Gold section of Table 5, first of three gold concentrations (μM, value not given), biocide concentration 4 of 4
[5] = Gold section of Table 5, second of three gold concentrations (μM, value not given), biocide concentration 4 of 4
[6] = Gold section of Table 5, third of three gold concentrations (μM, value not given), biocide concentration 4 of 4
[7] = Silver 0.5 μM, 4th of four biocide concentrations, E. coli
[8] = Silver 1.0 μM, 4th of four biocide concentrations, E. coli
[9] = Silver 5.0 μM, 4th of four biocide concentrations, E. coli
[10] = 2nd of 3 copper concentrations (value not shown), 3rd of four biocide concentrations
[11] = Gold section of Table 5, first of three gold concentrations (μM, value not given), biocide concentration 3 of 4
[12] = Gold section of Table 5, second of three gold concentrations (μM, value not given), biocide concentration 3 of 4
[13] = Gold section of Table 5, third of three gold concentrations (μM, value not given), biocide concentration 3 of 4
[14] = Silver 0.5 μM, 3rd of four biocide concentrations, E. coli
[15] = Silver 1.0 μM, 3rd of four biocide concentrations, E. coli
[16] = Silver 5.0 μM, 3rd of four biocide concentrations, E. coli
[17] = 1st of 3 copper concentrations (value not shown), 3rd of four biocide concentrations
[18] = 3rd of 3 copper concentrations (value not shown), 3rd of four biocide concentrations
[19] = Silver 0.5 μM, biocide concentration 4 of 4
[20] = Silver 1.0 μM, biocide concentration 4 of 4
[21] = Silver 5.0 μM, biocide concentration 4 of 4
[22] = 1st of 3 copper concentrations (value not shown), 1st of four biocide concentrations
[23] = 1st of 3 copper concentrations (value not shown), 2nd of four biocide concentrations
[24] = 2nd of 3 copper concentrations (value not shown), 1st of four biocide concentrations
[25] = 2nd of 3 copper concentrations (value not shown), 2nd of four biocide concentrations
[26] = 3rd of 3 copper concentrations (value not shown), 1st of four biocide concentrations
[27] = 3rd of 3 copper concentrations (value not shown), 2nd of four biocide concentrations
[28] = Gold section of Table 5, first of three gold concentrations (μM, value not given), biocide concentration 1 of 4
[29] = Gold section of Table 5, second of three gold concentrations (μM, value not given), biocide concentration 1 of 4
[30] = Gold section of Table 5, second of three gold concentrations (μM, value not given), biocide concentration 2 of 4
[31] = Gold section of Table 5, third of three gold concentrations (μM, value not given), biocide concentration 1 of 4
[32] = Gold section of Table 5, third of three gold concentrations (μM, value not given), biocide concentration 2 of 4

## CC(C)c1nc2nc(N)nc(N)c2nc1C(C)C [2,4-Diamino-6,7-diisopropylpteridine]
[1]
  CDI (coefficient of drug interaction), copper mixed with biocide: Tox
[2]
  CDI (coefficient of drug interaction), copper mixed with biocide: Tox
[3]
  CDI (coefficient of drug interaction), copper mixed with biocide: Tox
[4]
  CDI (coefficient of drug interaction): Tox
[5]
  CDI (coefficient of drug interaction): Tox
[6]
  CDI (coefficient of drug interaction): Tox
[7]
  CDI (coefficient of drug interaction), silver + biocide: Tox
[8]
  CDI (coefficient of drug interaction), silver + biocide: Tox
[9]
  CDI (coefficient of drug interaction), silver + biocide: Tox

## C[n+]1cc2c3c(ccc2c2ccc4cc5c(cc4c21)OCO5)OCO3 [sanguinarine]
[1]
  CDI (coefficient of drug interaction), copper mixed with biocide: Tox
[10]
  CDI (coefficient of drug interaction), copper mixed with biocide: Tox
[2]
  CDI (coefficient of drug interaction), copper mixed with biocide: Tox
[3]
  CDI (coefficient of drug interaction), copper mixed with biocide: Tox
[11]
  CDI (coefficient of drug interaction): Tox
[4]
  CDI (coefficient of drug interaction): Tox
[12]
  CDI (coefficient of drug interaction): Tox
[5]
  CDI (coefficient of drug interaction): Tox
[13]
  CDI (coefficient of drug interaction): Tox
[6]
  CDI (coefficient of drug interaction): Tox
[14]
  CDI (coefficient of drug interaction), silver + biocide: Tox
[7]
  CDI (coefficient of drug interaction), silver + biocide: Tox
[15]
  CDI (coefficient of drug interaction), silver + biocide: Tox
[8]
  CDI (coefficient of drug interaction), silver + biocide: Tox
[16]
  CDI (coefficient of drug interaction), silver + biocide: Tox
[9]
  CDI (coefficient of drug interaction), silver + biocide: Tox

## O=[N+]([O-])c1ncc[nH]1 [2-nitroimidazole]
[17]
  CDI (coefficient of drug interaction), copper mixed with biocide: Tox
[1]
  CDI (coefficient of drug interaction), copper mixed with biocide: Tox
[10]
  CDI (coefficient of drug interaction), copper mixed with biocide: Tox
[2]
  CDI (coefficient of drug interaction), copper mixed with biocide: Tox
[18]
  CDI (coefficient of drug interaction), copper mixed with biocide: Tox
[3]
  CDI (coefficient of drug interaction), copper mixed with biocide: Tox
[11]
  CDI (coefficient of drug interaction): Tox
[4]
  CDI (coefficient of drug interaction): Tox
[12]
  CDI (coefficient of drug interaction): Tox
[5]
  CDI (coefficient of drug interaction): Tox
[13]
  CDI (coefficient of drug interaction): Tox
[6]
  CDI (coefficient of drug interaction): Tox
[14]
  CDI (coefficient of drug interaction), silver + biocide: Tox
[7]
  CDI (coefficient of drug interaction), silver + biocide: Tox
[15]
  CDI (coefficient of drug interaction), silver + biocide: Tox
[8]
  CDI (coefficient of drug interaction), silver + biocide: Tox
[16]
  CDI (coefficient of drug interaction), silver + biocide: Tox
[9]
  CDI (coefficient of drug interaction), silver + biocide: Tox

## COc1ccc(CO)cc1OC [3,4-dimethoxybenzyl alcohol]
[1]
  CDI (coefficient of drug interaction), copper mixed with biocide: Tox
[2]
  CDI (coefficient of drug interaction), copper mixed with biocide: Tox
[3]
  CDI (coefficient of drug interaction), copper mixed with biocide: Tox
[4]
  CDI (coefficient of drug interaction): Tox
[5]
  CDI (coefficient of drug interaction): Tox
[6]
  CDI (coefficient of drug interaction): Tox
[19]
  CDI: Tox
[20]
  CDI: Tox
[21]
  CDI: Tox

## c1cnc2c(c1)ccc1cccnc12 [1,10-phenanthroline]
Copper 0.1 mM, biocide concentration 3 of 4
  CDI: Tox
Copper 0.1 mM, biocide concentration 4 of 4
  CDI: Tox
Copper 0.5 mM, biocide concentration 3 of 4
  CDI: Tox
Copper 0.5 mM, biocide concentration 4 of 4
  CDI: Tox
Copper 1.0 mM, biocide concentration 3 of 4
  CDI: Tox
Copper 1.0 mM, biocide concentration 4 of 4
  CDI: Tox
Gold 5 μM, biocide concentration 4 of 4, E. coli
  CDI (coefficient of drug interaction): Tox
Gold 25 μM, biocide concentration 4 of 4, E. coli
  CDI (coefficient of drug interaction): Tox
Gold 50 μM, biocide concentration 4 of 4, E. coli
  CDI (coefficient of drug interaction): Tox
[14]
  CDI (coefficient of drug interaction), silver + biocide: Tox
[7]
  CDI (coefficient of drug interaction), silver + biocide: Tox
[15]
  CDI (coefficient of drug interaction), silver + biocide: Tox
[8]
  CDI (coefficient of drug interaction), silver + biocide: Tox
[16]
  CDI (coefficient of drug interaction), silver + biocide: Tox
[9]
  CDI (coefficient of drug interaction), silver + biocide: Tox

## Niaproof
[22]
  CDI (coefficient of drug interaction), copper mixed with biocide: 1.26
[23]
  CDI (coefficient of drug interaction), copper mixed with biocide: 1.45
[17]
  CDI (coefficient of drug interaction), copper mixed with biocide: 0.74
[1]
  CDI (coefficient of drug interaction), copper mixed with biocide: 0.91
[24]
  CDI (coefficient of drug interaction), copper mixed with biocide: 1.09
[25]
  CDI (coefficient of drug interaction), copper mixed with biocide: 1.20
[10]
  CDI (coefficient of drug interaction), copper mixed with biocide: 0.43
[2]
  CDI (coefficient of drug interaction), copper mixed with biocide: 0.46
[26]
  CDI (coefficient of drug interaction), copper mixed with biocide: 1.19
[27]
  CDI (coefficient of drug interaction), copper mixed with biocide: 1.00
[18]
  CDI (coefficient of drug interaction), copper mixed with biocide: 0.73
[3]
  CDI (coefficient of drug interaction), copper mixed with biocide: 1.32
[28]
  CDI (coefficient of drug interaction): 1.32
[4]
  CDI (coefficient of drug interaction): 1.27
[29]
  CDI (coefficient of drug interaction): 1.21
[30]
  CDI (coefficient of drug interaction): 1.03
[12]
  CDI (coefficient of drug interaction): 1.09
[5]
  CDI (coefficient of drug interaction): 1.15
[31]
  CDI (coefficient of drug interaction): 1.35
[32]
  CDI (coefficient of drug interaction): 1.20
[13]
  CDI (coefficient of drug interaction): 0.95
[6]
  CDI (coefficient of drug interaction): 1.51
Silver 0.5 μM, 1st of four biocide concentrations, E. coli
  CDI (coefficient of drug interaction), silver + biocide: 1.07
Silver 0.5 μM, 2nd of four biocide concentrations, E. coli
  CDI (coefficient of drug interaction), silver + biocide: 1.17
[7]
  CDI (coefficient of drug interaction), silver + biocide: 1.74
Silver 1.0 μM, 2nd of four biocide concentrations, E. coli
  CDI (coefficient of drug interaction), silver + biocide: 1.17
[15]
  CDI (coefficient of drug interaction), silver + biocide: 0.99
[8]
  CDI (coefficient of drug interaction), silver + biocide: 1.45
Silver 5.0 μM, 1st of four biocide concentrations, E. coli
  CDI (coefficient of drug interaction), silver + biocide: 0.89
Silver 5.0 μM, 2nd of four biocide concentrations, E. coli
  CDI (coefficient of drug interaction), silver + biocide: 0.99
[16]
  CDI (coefficient of drug interaction), silver + biocide: 0.78
[9]
  CDI (coefficient of drug interaction), silver + biocide: 0.55

## hydroxylamine
  CDI (coefficient of drug interaction): 0.99

## CN[C@@H]1[C@@H](O)[C@@H](O[C@@H]2[C@@H](O)[C@H](O[C@H]3O[C@H]([C@@H](C)O)[C@@H](O)[C@H](O)[C@H]3N)[C@@H](N)C[C@H]2N)OC[C@]1(C)O [geneticin (G418)]
[22]
  CDI (coefficient of drug interaction), copper mixed with biocide: 0.97
[23]
  CDI (coefficient of drug interaction), copper mixed with biocide: 0.87
[17]
  CDI (coefficient of drug interaction), copper mixed with biocide: 0.86
[1]
  CDI (coefficient of drug interaction), copper mixed with biocide: 0.88
[24]
  CDI (coefficient of drug interaction), copper mixed with biocide: 0.73
[25]
  CDI (coefficient of drug interaction), copper mixed with biocide: 0.71
[10]
  CDI (coefficient of drug interaction), copper mixed with biocide: 0.71
[2]
  CDI (coefficient of drug interaction), copper mixed with biocide: Tox
[26]
  CDI (coefficient of drug interaction), copper mixed with biocide: 0.54
[27]
  CDI (coefficient of drug interaction), copper mixed with biocide: 0.50
[18]
  CDI (coefficient of drug interaction), copper mixed with biocide: 0.48
[3]
  CDI (coefficient of drug interaction), copper mixed with biocide: 0.44
[28]
  CDI (coefficient of drug interaction): 1.08
Gold section of Table 5, first of three gold concentrations (μM, value not given), biocide concentration 2 of 4
  CDI (coefficient of drug interaction): 1.00
[11]
  CDI (coefficient of drug interaction): 1.01
[4]
  CDI (coefficient of drug interaction): 0.95
[29]
  CDI (coefficient of drug interaction): 1.05
[30]
  CDI (coefficient of drug interaction): 1.03
[12]
  CDI (coefficient of drug interaction): 1.00
[5]
  CDI (coefficient of drug interaction): 1.02
[31]
  CDI (coefficient of drug interaction): 1.05
[32]
  CDI (coefficient of drug interaction): 1.04
[13]
  CDI (coefficient of drug interaction): 1.05
[6]
  CDI (coefficient of drug interaction): 1.11
Silver 0.5 μM, biocide concentration 1 of 4
  CDI: 1.04
Silver 0.5 μM, biocide concentration 2 of 4
  CDI: 0.96
Silver 0.5 μM, biocide concentration 3 of 4
  CDI: 0.76
[19]
  CDI: Tox
Silver 1.0 μM, biocide concentration 1 of 4
  CDI: 0.94
Silver 1.0 μM, biocide concentration 2 of 4
  CDI: 0.82
Silver 1.0 μM, biocide concentration 3 of 4
  CDI: 0.31
[20]
  CDI: Tox
Silver 5.0 μM, biocide concentration 1 of 4
  CDI: 0.48
Silver 5.0 μM, biocide concentration 2 of 4
  CDI: 0.49
Silver 5.0 μM, biocide concentration 3 of 4
  CDI: 0.23
[21]
  CDI: Tox

## CCn1cc(C(=O)O)c(=O)c2cnc(N3CCNCC3)nc21 [pipemidic acid]
[17]
  CDI (coefficient of drug interaction), copper mixed with biocide: Tox
[1]
  CDI (coefficient of drug interaction), copper mixed with biocide: Tox
[10]
  CDI (coefficient of drug interaction), copper mixed with biocide: Tox
[2]
  CDI (coefficient of drug interaction), copper mixed with biocide: Tox
[18]
  CDI (coefficient of drug interaction), copper mixed with biocide: Tox
[3]
  CDI (coefficient of drug interaction), copper mixed with biocide: Tox
